The values that follow come from PMC7126659 (Bioorganic & Medicinal Chemistry Letters, 2007).

Molecules are shown by their SMILES.

Experiment [1] has as its target T1, ACE2 (Homo sapiens, UniProt Q9BYF1). Kind of experiment: Directed screen of ACE2 versus a set of metalloprotease inhibitors. In kind it is biochemical. The conditions noted are these: directed screen of GlaxoSmithKline metalloprotease inhibitor set.
Experiment [2] concerns the target T1, ACE2. The conditions noted are these: it has been reported; no reference given; cited from earlier work.

T1 sequence (Q9BYF1 18-805): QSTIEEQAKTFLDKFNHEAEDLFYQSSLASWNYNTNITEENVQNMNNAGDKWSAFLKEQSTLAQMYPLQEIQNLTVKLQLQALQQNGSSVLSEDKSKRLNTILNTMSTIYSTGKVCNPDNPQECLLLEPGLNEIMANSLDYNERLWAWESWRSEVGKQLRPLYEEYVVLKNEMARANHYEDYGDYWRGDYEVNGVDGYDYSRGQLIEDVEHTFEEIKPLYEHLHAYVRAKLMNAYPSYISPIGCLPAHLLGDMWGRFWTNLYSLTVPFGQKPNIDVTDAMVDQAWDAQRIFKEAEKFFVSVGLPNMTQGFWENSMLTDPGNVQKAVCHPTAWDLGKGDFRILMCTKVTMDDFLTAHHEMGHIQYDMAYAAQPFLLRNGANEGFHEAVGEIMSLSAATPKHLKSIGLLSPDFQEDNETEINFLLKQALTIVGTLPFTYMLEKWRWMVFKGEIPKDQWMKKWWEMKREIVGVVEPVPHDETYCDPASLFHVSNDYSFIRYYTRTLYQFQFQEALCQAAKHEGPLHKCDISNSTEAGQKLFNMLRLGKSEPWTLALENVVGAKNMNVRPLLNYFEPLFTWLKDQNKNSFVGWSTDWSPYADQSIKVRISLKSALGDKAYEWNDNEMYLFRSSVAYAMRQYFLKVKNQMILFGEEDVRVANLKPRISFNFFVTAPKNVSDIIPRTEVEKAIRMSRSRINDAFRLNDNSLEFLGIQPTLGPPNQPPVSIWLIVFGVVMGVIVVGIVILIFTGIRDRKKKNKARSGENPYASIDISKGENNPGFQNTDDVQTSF

For `C[C@H](CS)C(=O)N1CCC[C@H]1C(=O)O` [captopril], the “activity in the ACE2 screen” value at ACE2 [1] was “inactive”. Also, on ACE2 [2], the “effect on ACE2 enzyme activity” value is reported as “do not attenuate ACE2 enzyme activity”.
In the case of `NCCCC[C@H](N[C@@H](CCc1ccccc1)C(=O)O)C(=O)N1CCC[C@H]1C(=O)O` [lisinopril], the “effect on ACE2 enzyme activity” value on ACE2 [2] was “do not attenuate ACE2 enzyme activity”.
